Data set [1] in a line: Stability of treated (extracted) human urine samples of AST-2660 at room temperature (LC-MS/MS). The data set is classed as physicochemical. The note with it: 94 hours at room temperature. The procedure: (§1) The detection method established in example 6 was used to detect the content of AST-2660 in the human urine to be tested.
Matrix: the mixed normal human urine containing an additive Na2HPO4·12H2O. • a: the internal standard working solution: AST-2660-D8 was taken, dissolved with methanol, and diluted to prepare a solution containing about 100 ng per 1 ml. • b: the solution to be tested (no internal standard compound was added to the solution to be tested at this time): it was obtained by taking a blood sample to be tested. • c: the standard working solution (no internal standard compound was added to the standard working solution at this time): an appropriate amount of AST-2660 was taken and accurately weighed, dissolved with methanol and diluted to prepare a solution containing about 1.0 mg per 1 ml, which was used as the standard working stock solution. […]
(§2) Calculation results: the relationship function y=f (x) of the ratio of the peak area of AST-2660 to that of the internal standard was obtained from AST-2660 standard working solutions with different concentrations. The ratio of the peak area of AST-2660 to that of the internal standard was determined from the solution to be tested after extraction, and substituted into the relationship function y=f (x) to calculate the concentration of the metabolite II in the solution to be tested.

The nature of data set [2]: Experimental table stability of AST-2660 in human urine at room temperature (LC-MS/MS). Type of data set: in vitro ADME. The note with it: for RE (%) vs nominal / AST-2660 concentration, Mean value / AST-2660 concentration, single replicates: human urine, room temperature. The procedure:
as §1
Matrix: the mixed normal human urine containing an additive Na2HPO4·12H2O. • a: the internal standard working solution: AST-2660-D8 was taken, dissolved with methanol, and diluted to prepare a solution containing about 100 ng per 1 ml. • b: the solution to be tested (no internal standard compound was added to the solution to be tested at this time): it was obtained by taking a blood sample to be tested. • c: the standard working solution (no internal standard compound was added to the standard working solution at this time): an appropriate amount of AST-2660 was taken and accurately weighed, dissolved with methanol and diluted to prepare a solution containing about 1.0 mg per 1 ml, which was used as the standard working stock solution. An appropriate amount of the standard working stock solution was taken, added with the matrix and diluted to prepare standard working solutions with different concentrations containing about 200 ng, 160 ng, 100 ng, 50 ng, 10 ng, 2.0 ng, 1.0 ng and 0.5 ng per 1 ml, respectively. (The solution was stored at −70° C.) • d: the quality control sample solution: an appropriate amount of AST-2660 was taken and accurately weighed, dissolved with methanol, and diluted to prepare a solution containing about 10 μg per 1 ml, which was used as the quality control working stock solution. An appropriate amount of the quality control working stock solution was taken, and added with the matrix to prepare quality control working solutions with different concentrations containing about 150 ng, 60 ng, 15 ng, 1.5 ng and 0.5 ng per 1 ml. (The solution was stored at −70° C.)
The solution to be tested, the standard working solution and the quality control sample solution were thawed at room temperature and mixed uniformly. 100 μl of the above solution was respectively taken, added with 20 μl of the internal standard and 500 μl of methanol, and vortexed for 3 minutes to mix uniformly, and then centrifuged for 30 minutes at 2143 rcf. 450 μl of supernatant was taken, and then centrifuged for 10 minutes in a 96-well plate at 2143 rcf. It was obtained by taking 300 μl of supernatant.
Liquid phase conditions: A SHARC 1, 3 μm, 2.1*50 mm or chromatograph column with equivalent performance was used; methanol solution containing low content of ammonium acetate was used; mobile phase B was acetonitrile; the gradient elution was performed according to the following table; column temperature: 20° C.; injection volume: 5 μl.
Mass spectrometric conditions: electrospray ion source with negative ion scanning mode; spray potential: −4500 V; ion source temperature: 500° C.; collision energy (CE): −22 eV; declustering potential (DP): −55V; entrance potential (EP): −10V; collision chamber exit potential (CXP): −16V; dwell time: 100 ms; high purity nitrogen was used for all gases; AST-2660 ions pairs: m/z 147.0→m/z 62.9; the internal standard AST-2660-D8 ion pairs: m/z 155.0→m/z 62.9.
The AST-2660 standard working solution, blank sample, zero concentration sample, solution to be tested and quality control working solution with different concentrations after extraction were respectively taken and injected into LC-MS/MS for detection.
as §2

The mark [3] stands for this setting: QC1 nominal 1.50 ng/ml, 4 hours.
[4] abbreviates: QC1 nominal 1.50 ng/ml, 24 hours.
Where [5] appears, read: QC4 nominal 150 ng/ml, 24 hours.

Consider one compound from patent publication US20240140970A1, “A […], AND PREPARATION METHOD AND USE THEREOF” (ASCENTAWITS PHARMACEUTICALS, LTD., priority 2021, published 2024).

Where “and” joins values, the source holds several entries; their conditions need not be identical. Equal values may be shown once.

On to `O=P([O-])(N1CC1)N1CC1.[Na+]` [AST-2660], for which the “stability (in words)” value in data set [1] is recorded as “stable”; in data set [2] (untreated human urine samples, 24 hours at room temperature), “stable”. The “RE (accuracy), range over three concentration levels” value in data set [2] (human urine at room temperature for 4 hours, 1.5, 150 and 1500 ng/ml) is “RE: −8.5% to 4.5%”. For the same compound, the “RE (%) vs nominal” value is reported as −5.7% in data set [2] (DilQC (10-fold dilution) nominal 1500 ng/ml, 0 hour); −5.7% in data set [2] (DilQC (10-fold dilution) nominal 1500 ng/ml, 4 hours); −13.2% in data set [2] (DilQC (10-fold dilution) nominal 1500 ng/ml, 24 hours); −8.5% in data set [2] (QC1 nominal 1.50 ng/ml, 0 hour); −3.7% in data set [2] (setting [3]); 26.7% in data set [2] (setting [4]). The “RE (%) vs nominal” value is reported as −4.5% in data set [2] (QC4 nominal 150 ng/ml, 0 hour); 4.5% in data set [2] (QC4 nominal 150 ng/ml, 4 hours); 0.8% in data set [2] (setting [5]). For the same compound, the “AST-2660 concentration, Mean value” in data set [2] (QC1 nominal 1.50 ng/ml, 0 hour) stood at 1.37 ng/mL; in data set [2] (setting [3]), 1.45 ng/mL; in data set [2] (setting [4]), 1.90 ng/mL. The “AST-2660 concentration, single replicates” value was 1.44 ng/mL in data set [2] (QC1 nominal 1.50 ng/ml, 0 hour); 1.51 ng/mL in data set [2] (setting [3]); 2.07 ng/mL in data set [2] (setting [4]); 141 ng/mL and 144 ng/mL and 142 ng/mL and 146 ng/mL in data set [2] (QC4 nominal 150 ng/ml, 0 hour); 156 ng/mL and 154 ng/mL and 159 ng/mL in data set [2] (QC4 nominal 150 ng/ml, 4 hours); 149 ng/ml (2×) and 154 ng/ml in data set [2] (setting [5]).
